This note sets out measurements from patent US20220323406A1, “METHODS AND COMPOSITIONS FOR DIFFERENTIATING STEM CELLS” (Massachusetts Institute of Technology, priority 2019, published 2022).

What all share (conditions): primary screen
Test [1] deals with ENR+CD organoids (ISC to Paneth cell differentiation). Nature of the test: Primary screen: basal (non-stimulated) lysozyme secretion LYZ.NS, 2.5-D 384-well ENR+CD organoid differentiation. In kind it is cell-based, mouse. From the text: (§1) High-throughput screening.
Test [2] shares this test system. Kind of test: Primary screen: CCh-stimulated lysozyme secretion LYZ.S, 2.5-D 384-well ENR+CD organoid differentiation. In kind it is cell-based, mouse.
Text: as §1

Another test deals with ENR+CD organoids. Kind of test: Primary screen: ATP (CellTiter-Glo 3D, CTG) cell number/viability, 2.5-D 384-well ENR+CD organoids.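 Also: compounds given at plating and again on day 3 over a 6-day differentiation from ENR+CV stem-cell-enriched precursors, ATP measured on day 6, plate median as control.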

Where a name gives a salt, the structure may show the parent alone.

In the case of `CN(C)CCCCC(=O)Nc1ccc(NC(=S)NC(=O)c2ccc(C(C)(C)C)cc2)cc1` [Tenovin-6], the Dose.FC.LYZ.NS is 0.121 log2 fold change in test [1] (dose 0.08 uM), −0.053 log2 fold change in test [1] (dose 0.40 uM), −0.194 log2 fold change in test [1] (dose 2.00 uM) and −0.192 log2 fold change in test [1] (dose 10.00 uM). Moreover, the “Z.LYZ.NS (standard z score)” value was 1.050 in test [1] (dose 0.08 uM), −0.463 in test [1] (dose 0.40 uM), −1.686 in test [1] (dose 2.00 uM) and −1.671 in test [1] (dose 10.00 uM). Besides, the Dose.FC.LYZ.S in test [2] (dose 0.08 uM) is on record as 0.028 log2 fold change; in test [2] (dose 0.40 uM), −0.109 log2 fold change; in test [2] (dose 2.00 uM), −0.328 log2 fold change; in test [2] (dose 10.00 uM), −0.344 log2 fold change. Moreover, the Dose.FC.CTG is reported as 0.069 log2 fold change with ENR+CD organoids (dose 0.08 uM), −0.506 log2 fold change with ENR+CD organoids (dose 0.40 uM), −1.111 log2 fold change with ENR+CD organoids (dose 2.00 uM) and −1.429 log2 fold change with ENR+CD organoids (dose 10.00 uM). In addition, the “Z.CTG (standard z score)” value in the test with ENR+CD organoids (dose 0.08 uM) was 0.165; in the test on ENR+CD organoids (dose 0.40 uM) it was −1.209; with ENR+CD organoids (dose 2.00 uM), −2.654; with ENR+CD organoids (dose 10.00 uM) it was −3.414.
For `O=C(NCc1ccccc1)c1csc(Nc2ccncn2)n1` [Thiazovivin], the Dose.FC.LYZ.NS in test [1] (dose 0.08 uM) is given as 0.090 log2 fold change; in test [1] (dose 0.40 uM), 0.070 log2 fold change; in test [1] (dose 2.00 uM), 0.024 log2 fold change; in test [1] (dose 10.00 uM), −0.069 log2 fold change. In addition, the “Z.LYZ.NS (standard z score)” value is recorded as 0.780 in test [1] (dose 0.08 uM), 0.611 in test [1] (dose 0.40 uM), 0.205 in test [1] (dose 2.00 uM) and −0.605 in test [1] (dose 10.00 uM). In addition, the Dose.FC.LYZ.S in test [2] (dose 0.08 uM) is recorded as 0.142 log2 fold change; in test [2] (dose 0.40 uM), 0.060 log2 fold change; in test [2] (dose 2.00 uM), 0.064 log2 fold change; in test [2] (dose 10.00 uM), 0.037 log2 fold change. In addition, the Dose.FC.CTG in the test on ENR+CD organoids (dose 0.08 uM) stood at 0.141 log2 fold change; in the test with ENR+CD organoids (dose 0.40 uM) it was 0.113 log2 fold change; in the test with ENR+CD organoids (dose 2.00 uM), 0.312 log2 fold change; in the test on ENR+CD organoids (dose 10.00 uM), 0.189 log2 fold change. The “Z.CTG (standard z score)” value in the test on ENR+CD organoids (dose 0.08 uM) worked out at 0.337; with ENR+CD organoids (dose 0.40 uM), 0.271; with ENR+CD organoids (dose 2.00 uM) it was 0.746; in the test on ENR+CD organoids (dose 10.00 uM), 0.451.
For the compound `CCCSc1nc(N[C@@H]2C[C@H]2c2ccc(F)c(F)c2)c2nnn([C@@H]3C[C@H](OCCO)[C@@H](O)[C@H]3O)c2n1` [Ticagrelor], the Dose.FC.LYZ.NS is reported as 0.115 log2 fold change in test [1] (dose 0.08 uM), −0.032 log2 fold change in test [1] (dose 0.40 uM), 0.120 log2 fold change in test [1] (dose 2.00 uM) and 0.020 log2 fold change in test [1] (dose 10.00 uM). In addition, the “Z.LYZ.NS (standard z score)” value in test [1] (dose 0.08 uM) is recorded as 0.998; in test [1] (dose 0.40 uM) it was −0.276; in test [1] (dose 2.00 uM) it was 1.041; in test [1] (dose 10.00 uM), 0.170. Also, the Dose.FC.LYZ.S in test [2] (dose 0.08 uM) is on record as 0.042 log2 fold change; in test [2] (dose 0.40 uM), 0.000 log2 fold change; in test [2] (dose 2.00 uM) it was 0.018 log2 fold change; in test [2] (dose 10.00 uM) it was 0.022 log2 fold change. Further, the Dose.FC.CTG is on record as −0.080 log2 fold change in the test on ENR+CD organoids (dose 0.08 uM), −0.029 log2 fold change in the test with ENR+CD organoids (dose 0.40 uM), −0.270 log2 fold change in the test with ENR+CD organoids (dose 2.00 uM) and −0.241 log2 fold change in the test with ENR+CD organoids (dose 10.00 uM).
In the case of `Clc1ccccc1CN1CCc2sccc2C1` [Ticlopidine HCl], the Dose.FC.LYZ.NS in test [1] (dose 0.08 uM) was 0.043 log2 fold change; in test [1] (dose 0.40 uM), 0.010 log2 fold change; in test [1] (dose 2.00 uM), −0.002 log2 fold change; in test [1] (dose 10.00 uM), −0.035 log2 fold change. Also, the “Z.LYZ.NS (standard z score)” value is recorded as 0.373 in test [1] (dose 0.08 uM), 0.084 in test [1] (dose 0.40 uM), −0.018 in test [1] (dose 2.00 uM) and −0.308 in test [1] (dose 10.00 uM). For the same compound, the Dose.FC.LYZ.S in test [2] (dose 0.08 uM) is recorded as 0.052 log2 fold change; in test [2] (dose 0.40 uM) it was 0.072 log2 fold change; in test [2] (dose 2.00 uM), −0.022 log2 fold change; in test [2] (dose 10.00 uM), 0.076 log2 fold change. Also, the Dose.FC.CTG in the test with ENR+CD organoids (dose 0.08 uM) is given as −0.118 log2 fold change; in the test on ENR+CD organoids (dose 0.40 uM), −0.041 log2 fold change; with ENR+CD organoids (dose 2.00 uM) it was −0.234 log2 fold change; with ENR+CD organoids (dose 10.00 uM), −0.005 log2 fold change.
In the case of `COc1ccc2cc(-c3nc(-c4ccc([S+](C)[O-])cc4)[nH]c3-c3ccncc3)ccc2c1` (stereo not drawn) [Tie2 kinase inhibitor], the Dose.FC.LYZ.NS in test [1] (dose 0.08 uM) was 0.009 log2 fold change; in test [1] (dose 0.40 uM) it was 0.002 log2 fold change; in test [1] (dose 2.00 uM), 0.181 log2 fold change; in test [1] (dose 10.00 uM) it was −0.031 log2 fold change. The “Z.LYZ.NS (standard z score)” value in test [1] (dose 0.08 uM) was 0.080; in test [1] (dose 0.40 uM) it was 0.019; in test [1] (dose 2.00 uM) it was 1.577; in test [1] (dose 10.00 uM), −0.274. The Dose.FC.LYZ.S in test [2] (dose 0.08 uM) was 0.018 log2 fold change; in test [2] (dose 0.40 uM) it was −0.021 log2 fold change; in test [2] (dose 2.00 uM), 0.024 log2 fold change; in test [2] (dose 10.00 uM) it was −0.097 log2 fold change. Further, the Dose.FC.CTG in the test on ENR+CD organoids (dose 0.08 uM) is 0.005 log2 fold change; with ENR+CD organoids (dose 0.40 uM), 0.074 log2 fold change; in the test with ENR+CD organoids (dose 2.00 uM) it was −0.314 log2 fold change; in the test on ENR+CD organoids (dose 10.00 uM), −0.549 log2 fold change. The “Z.CTG (standard z score)” value in the test with ENR+CD organoids (dose 0.08 uM) was 0.012; in the test with ENR+CD organoids (dose 0.40 uM), 0.177; in the test on ENR+CD organoids (dose 2.00 uM), −0.750; with ENR+CD organoids (dose 10.00 uM) it was −1.311.
Turning to `O=c1oc2cc(O)ccc2s1` [Tioxolone], the Dose.FC.LYZ.NS is reported as 0.099 log2 fold change in test [1] (dose 0.08 uM), 0.012 log2 fold change in test [1] (dose 0.40 uM), 0.053 log2 fold change in test [1] (dose 2.00 uM) and 0.023 log2 fold change in test [1] (dose 10.00 uM). The “Z.LYZ.NS (standard z score)” value in test [1] (dose 0.08 uM) came out at 0.864; in test [1] (dose 0.40 uM) it was 0.101; in test [1] (dose 2.00 uM), 0.462; in test [1] (dose 10.00 uM) it was 0.202. Moreover, the Dose.FC.LYZ.S in test [2] (dose 0.08 uM) was 0.149 log2 fold change; in test [2] (dose 0.40 uM), 0.000 log2 fold change; in test [2] (dose 2.00 uM), 0.023 log2 fold change; in test [2] (dose 10.00 uM), 0.028 log2 fold change. Besides, the Dose.FC.CTG in the test with ENR+CD organoids (dose 0.08 uM) stood at 0.246 log2 fold change; in the test with ENR+CD organoids (dose 0.40 uM) it was 0.089 log2 fold change; with ENR+CD organoids (dose 2.00 uM), 0.044 log2 fold change; in the test on ENR+CD organoids (dose 10.00 uM), 0.328 log2 fold change.
Regarding `C[C@@H]1CCN(C(=O)CC#N)C[C@@H]1N(C)c1ncnc2[nH]ccc12` [Tofacitinib (CP-690550, Tasocitinib)], the Dose.FC.LYZ.NS in test [1] (dose 0.08 uM) is recorded as −0.017 log2 fold change; in test [1] (dose 0.40 uM), −0.015 log2 fold change; in test [1] (dose 2.00 uM) it was −0.007 log2 fold change; in test [1] (dose 10.00 uM), −0.004 log2 fold change. In addition, the “Z.LYZ.NS (standard z score)” value in test [1] (dose 0.08 uM) is −0.146; in test [1] (dose 0.40 uM) it was −0.132; in test [1] (dose 2.00 uM), −0.061; in test [1] (dose 10.00 uM) it was −0.036. Also, the Dose.FC.LYZ.S in test [2] (dose 0.08 uM) is recorded as 0.022 log2 fold change; in test [2] (dose 0.40 uM) it was 0.010 log2 fold change; in test [2] (dose 2.00 uM), 0.025 log2 fold change; in test [2] (dose 10.00 uM), 0.010 log2 fold change. Also, the Dose.FC.CTG in the test on ENR+CD organoids (dose 0.08 uM) came to 0.130 log2 fold change; in the test on ENR+CD organoids (dose 0.40 uM), 0.249 log2 fold change; in the test on ENR+CD organoids (dose 2.00 uM), 0.117 log2 fold change; with ENR+CD organoids (dose 10.00 uM) it was 0.236 log2 fold change. For the same compound, the “Z.CTG (standard z score)” value stood at 0.312 with ENR+CD organoids (dose 0.08 uM), 0.595 in the test on ENR+CD organoids (dose 0.40 uM), 0.278 with ENR+CD organoids (dose 2.00 uM) and 0.563 in the test with ENR+CD organoids (dose 10.00 uM).
`c1ccc(CC2=NCCN2)cc1` [Tolazoline HCl]: the Dose.FC.LYZ.NS in test [1] (dose 0.08 uM) is listed as 0.144 log2 fold change; in test [1] (dose 0.40 uM), 0.084 log2 fold change; in test [1] (dose 2.00 uM) it was 0.088 log2 fold change; in test [1] (dose 10.00 uM), −0.049 log2 fold change. For the same compound, the “Z.LYZ.NS (standard z score)” value was 1.255 in test [1] (dose 0.08 uM), 0.728 in test [1] (dose 0.40 uM), 0.765 in test [1] (dose 2.00 uM) and −0.424 in test [1] (dose 10.00 uM). For the same compound, the Dose.FC.LYZ.S in test [2] (dose 0.08 uM) is 0.169 log2 fold change; in test [2] (dose 0.40 uM) it was 0.128 log2 fold change; in test [2] (dose 2.00 uM) it was 0.069 log2 fold change; in test [2] (dose 10.00 uM), −0.063 log2 fold change. Moreover, the Dose.FC.CTG in the test on ENR+CD organoids (dose 0.08 uM) is 0.245 log2 fold change; with ENR+CD organoids (dose 0.40 uM), 0.222 log2 fold change; in the test on ENR+CD organoids (dose 2.00 uM) it was −0.051 log2 fold change; in the test on ENR+CD organoids (dose 10.00 uM), −0.208 log2 fold change.
